Measurements: US20240423982A1 (Eli Lilly and Company, priority 2023, published 2024)

Test system: new-onset type-1 diabetes patients
Assay: randomized placebo-controlled study of baricitinib 4 mg per day for 48 weeks in new-onset type 1 diabetes
Format: in vivo, human
Experimental: Participants: Eligibility criteria included age between 10 and 30 years, diagnosis of type 1 diabetes according to ADA criteria within 100 days of starting study drug, presence of at least one islet autoantibody and either random C-peptide>0.3 pmol/mL or C-peptide>0.2 pmol/mL per during a 2 h MMTT. Exclusion criteria included treatment with other immunomodulatory agents, and clinically significant comorbidities including cytopenias, known malignancy, history of thrombosis or LDL cholesterol>155 mg/dL. All participants received standard diabetes management with a target HbA1c of less than 7% in adults and less than 7.5% in participants less than 18 years of age, in accordance with current ADA recommendations.
Primary, secondary, and exploratory outcomes: The primary outcome was the average C-peptide during a 2 h MMTT at 48 weeks, calculated as the area under the trapezoidal curve divided by 120 minutes. Secondary outcomes included HbA1c, total daily insulin use, CGM measures from the ambulatory glucose profile. Participants were requested to wear either a Freestyle Libre2 or Dexcom G6 CGM for 14 days at baseline, 12, 24, 48, 72 and 96 weeks. Exploratory mechanistic outcomes included the assessment of basal and cytokine-stimulated phosphorylation of STAT proteins in fresh whole blood, and the frequency of T-cell subsets in PBMC. Samples for these were collected at baseline and 24 weeks.

[1] = weeks 12 and 24, but not week 48, versus placebo

Q: Which tolerability (4 mg per day orally, 48 weeks) does the source give for `CCS(=O)(=O)N1CC(CC#N)(n2cc(-c3ncnc4[nH]ccc34)cn2)C1` [baricitinib, {1-(ethylsulfonyl)-3-[4-(7H-pyrrolo[2,3-d]pyrimidin-4-yl)-1H-pyrazol-1-yl]azetidin-3-yl}acetonitrile] here?
A: well tolerated

Q: What about the “glucose coefficient of variation (CGM)” value (12, 24 and 48 weeks, versus placebo) of the same molecule?
A: improved significantly

Q: What about the HbA1c (48 weeks, mean±SEM, placebo 7.4±0.27, p=0.216) of the same molecule?
A: 7.0%

Q: And the “insulin use compared to placebo” value (FIG. 1B, over treatment)?
A: significantly lower insulin use

Q: And the “lipid profile, liver function or renal function versus placebo” value (baseline, 12, 24, or 48 weeks)?
A: no significant differences

Q: What about the “time below range <70 mg/dl (<3.9 mmol/L) (CGM)” value (between groups) of the same molecule?
A: no significant differences

Q: And the “median number of AEs” value (placebo 3)?
A: 2

Q: What about the “SAEs attributed to study medication” value (total of seven SAEs recorded in both groups) of the same molecule?
A: none of which were attributed to study medication

Q: And the “median C-peptide during 2 h MMTT” value (week 48, 4 mg per day orally, placebo 0.45 (0.13-0.63), p=0.001)?
A: 0.65 (0.31-0.82) pmol/mL/min

Q: And the daily insulin dose (week 48, median, placebo 0.48 (0.37-0.64), p=0.004)?
A: 0.39 (0.22-0.57) U/kg/day

Q: What about the “C-peptide decline compared to baseline” value (week 48, placebo 29.5%, p=0.008) of the same molecule?
A: 5.5%

Q: What about the “HbA1c difference between groups” value (weeks 12, 24 or 48) of the same molecule?
A: did not differ significantly

Q: And the “daily insulin requirement versus baseline” value (weeks 12 and 24)?
A: decreased below baseline

Q: And the “median C-peptide compared to placebo” value (weeks 12 and 24)?
A: significantly higher

Q: What about the “percent time above 180 mg/dl (10 mmol/l) (CGM)” value [1] of the same molecule?
A: significantly lower

Q: And the “percent time between 70 and 180 mg/dL (3.9 and 10 mmol/L) (CGM)” value [1]?
A: higher
